Results filed as inconclusive are left out. Calls of active or inactive are those of the source.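 How the source made its calls: active means compound lowering the normal-ribosome reporter at least twice as much as the humanized-ribosome reporter, growth loss under a set limit; inconclusive means no clear call, values can overlap the other calls; inactive means the rest.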
Each compound was assayed on E. coli wild-type GFP strain growth, fluorescence, 24 h (assay: wild-type E. coli growth inhibition versus h34 humanized strain – h34 mutant RFP, wild-type GFP, cherry-pick, dose response (AID 977624);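 further: wild-type GFP strain co-cultured with humanized h34 ribosome RFP strain in same well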).
In the case of `O=C(CN1CCc2ccccc2C1)Nc1ccc(F)cc1F`, the AC50 was > 100 µM (inactive). For `COc1ccc(NC(=O)CN(c2ccccc2OC)S(=O)(=O)c2cccs2)cc1Cl`, the AC50 was > 100 µM (inactive). For `COC(=O)c1c(-c2ccc(OC)cc2)sc2cc(OC)c(OC)cc12`, the AC50 was > 100 µM (inactive). For `O=C(CCCOc1ccc(Cl)cc1Cl)Nc1ccccc1C(=O)O`, the AC50 was > 100 µM (inactive). With `Cc1cnc(NC(=O)Cc2c[nH]c3ccccc23)s1` the AC50 was > 100 µM (inactive). For `CC1(C(=O)NS(=O)(=O)c2cccc(C#N)c2)CCN1C(=O)C1(c2ccc(Cl)cc2)CCC1` (configuration not stated), the AC50 was > 100 µM (inactive). `CSc1cccc(NC(=O)CSc2nc3ccccc3o2)c1` was tested, and the AC50 was > 100 µM (inactive). With `COc1ccc(C(=O)Nc2ccc3oc(Cc4ccc(Cl)cc4)nc3c2)cc1OC` the AC50 was > 100 µM (inactive). For `COc1ccccc1Cn1c(=S)[nH]c2ccc(F)cc2c1=O`, the AC50 was > 100 µM (inactive). In the case of `NC(=O)c1ccsc1NC(=O)COC(=O)CCOc1ccccc1`, the AC50 was > 100 µM (inactive). For `COc1cccc2c1Oc1cc([N+](=O)[O-])cc(N(C)C(C)=O)c1C=C2`, the AC50 was > 100 µM (inactive). In the case of `O=C(CCc1nc2ccccc2s1)OCC(=O)c1ccc[nH]1`, the AC50 was > 100 µM (inactive). For `O=C(c1cc(C(=O)N2CCOCC2)c2nc3ccccc3n2c1)c1cc(Cl)cc(Cl)c1O`, the AC50 was > 100 µM (inactive). In the case of `CSc1ccccc1NC(=O)c1ccccc1N(Cc1ccccc1)S(C)(=O)=O`, the AC50 was > 100 µM (inactive). For `O=C(O)CCN(Cc1ccccc1)S(=O)(=O)c1ccc(Cl)cc1F`, the AC50 was > 100 µM (inactive). In the case of `CC(=O)c1c(C)[nH]c(C(=O)Nc2nc(C)cs2)c1C`, the AC50 was > 100 µM (inactive). For `Cc1ccc2oc(C(=O)N(CCO)Cc3ccccc3)c(C)c2c1`, the AC50 was > 100 µM (inactive). For `COc1ccc(C(=O)Cn2c(C)nc([N+](=O)[O-])c2Br)cc1`, the AC50 was > 100 µM (inactive). In the case of `CCc1nnc(NS(=O)(=O)c2ccc(NC(=O)c3cccc4ccccc34)cc2)s1`, the AC50 was > 100 µM (inactive). For `O=C(O)c1ccccc1NC(=O)C(c1ccccc1)c1ccccc1`, the AC50 was > 100 µM (inactive). For `Cc1ccc(-n2nc(C)c3c(C)c(CCC(=O)O)c(C)nc32)cc1C`, the AC50 was > 100 µM (inactive). In the case of `Cc1ccc(C(=O)OCC(=O)c2c[nH]c3ccccc23)cc1NC(=O)c1ccco1`, the AC50 was > 100 µM (inactive). In the case of `Clc1ccc(-c2nc3ccc(Br)cn3c2Cc2ccsc2)cc1`, the AC50 was > 100 µM (inactive). For `O=S(=O)(c1ccccc1)N1C[C@@H]2[C@H](c3ccccc31)[C@H](CO)N2Cc1ccccc1`, the AC50 was > 100 µM (inactive). In the case of `O=C(Nc1ccc(S(=O)(=O)NC2=NCCCCC2)cc1)c1ccc([N+](=O)[O-])s1`, the AC50 was > 100 µM (inactive). `COC(=O)COc1ccc(S(=O)(=O)N2CCc3ccccc3C2)cc1C` was tested, and the AC50 was > 100 µM (inactive). `CCOc1ccc(NC(=O)CN(C)CC(=O)Nc2ccc(Br)cc2F)cc1OCC` was tested, and the AC50 was > 100 µM (inactive). `CC1(C(=O)NS(=O)(=O)c2ccc3c(c2)CCO3)CCN1C(=O)c1ccccc1CCc1ccccc1` (configuration not stated) was tested, and the AC50 was > 100 µM (inactive). With `COc1ccc(-c2noc(=O)n2Cc2ccccc2Cl)cc1` the AC50 was > 100 µM (inactive). With `CCN(c1ccccc1)S(=O)(=O)c1ccc(OC)c(OC)c1` the AC50 was > 100 µM (inactive). `O=C(CCCn1c(=S)[nH]c2ccsc2c1=O)Nc1ccc2c(c1)OCCO2` was tested, and the AC50 was > 100 µM (inactive). `O=S(=O)(NC1c2cccc3cccc(c23)C1Sc1ncccn1)c1ccccc1` (configuration not stated) was tested, and the AC50 was > 100 µM (inactive). For `COc1cc(NC(=O)c2ccc([N+](=O)[O-])o2)ccc1NC(=O)c1ccco1`, the AC50 was > 100 µM (inactive). `CC(C)(C)C1CCC(OCC(O)CN2CCN(c3ccccn3)CC2)CC1` (configuration not stated) was tested, and the AC50 was > 100 µM (inactive). `CCN(CC)S(=O)(=O)c1ccc(O)c(C(=O)OCC(=O)NC23CC4CC(CC(C4)C2)C3)c1` was tested, and the AC50 was > 100 µM (inactive). `Cc1ccc(NC(=O)CCCSc2ccccc2)cc1S(=O)(=O)N1CCOCC1` was tested, and the AC50 was > 100 µM (inactive). With `CN(c1ccccc1)S(=O)(=O)c1cccc(C(=O)OCC(=O)NCc2ccco2)c1` the AC50 was > 100 µM (inactive). `CCOc1cccc(-c2cc(-c3n[nH]c(=S)n3CC)c3ccccc3n2)c1` was tested, and the AC50 was > 100 µM (inactive). For `O=[N+]([O-])c1cccnc1N1CCN(c2ccc(F)cc2)CC1`, the AC50 was > 100 µM (inactive). In the case of `CCC(=O)c1ccc(OCC(=O)Nc2nc(C)cs2)cc1`, the AC50 was > 100 µM (inactive). In the case of `O=C(c1ccc(-n2cccn2)cc1)N1CCc2ccccc2C1`, the AC50 was > 100 µM (inactive). In the case of `Cc1n[nH]c(C)c1Sc1ccccc1[N+](=O)[O-]`, the AC50 was > 100 µM (inactive). For `Cc1ccccc1-n1nnnc1SCCCC(=O)c1ccc(F)cc1`, the AC50 was > 100 µM (inactive). `COc1ccc(Nc2nc(N)c([N+](=O)[O-])c(N3CCCC3)n2)cc1` was tested, and the AC50 was > 100 µM (inactive). In the case of `CCOc1ccccc1/C=C/c1cc(C(=O)O)c2ccccc2n1`, the AC50 was > 100 µM (inactive). In the case of `COc1ccc(C(CC(=O)c2ccc(O)cc2)S(=O)(=O)c2ccc(C)cc2)cc1` (configuration not stated), the AC50 was > 100 µM (inactive). With `COc1ccc(-c2csc(NC(=O)CC(NC(C)=O)c3ccccc3)n2)cc1OC` (configuration not stated) the AC50 was > 100 µM (inactive).

From PubChem BioAssay AID977624 (Broad Institute, 2014)
